Experimental data: US9073858B2, “Methods of targeted drug development” (priority 2010, dated 2015)
Several values for one entry are separate records, joined by “and”; a condition that tells them apart may be missing. Identical values can stand only once. Like-named read-outs stand apart in the source and are kept apart here.

Columns and labels:
H1975 cells = assay: H1975 Cell Proliferation Assay (MTT); type: cell-based; conditions: Homo sapiens, read-out: IC50 Value (μM) H1975 Cells
Experimental: (§1) Cell proliferation is determined using the MTT assay. The MTT cell proliferation assay is a colorimetric assay system which measures the reduction of a tetrazolium component (MTT) into an insoluble formazan product by the mitochondria of viable cells. After incubation of the cells with the MTT reagent, DMSO is added to solubilize the colored crystals and the samples read at a wavelength of 560 nm. The amount of color produced is directly proportional to the number of viable cells.
(§2) 3-(4,5-Dimethylthiazol-2-yl)-2,5-diphenyltetrazolium Bromide (MTT) dye (Aesar, cat no. L11939) was prepared at 5 mg/ml in PBS. To each well, 20 μl of MTT solution was added to existing media and mixed thoroughly with 5 mins of gentle shaking at room temperature. Plates were incubated at 37° C., 5% CO2 for approximately 2 hrs. After 2-3 hrs incubation, media was aspirated out and plates were patted dry. […] Plates were incubated at 37° C., 5% CO2 for 10 min and mix thoroughly with 5 mins of gentle shaking at room temperature. Plates were read on the PolarStar plate reader at 560 nm. Percent (%) inhibition was calculated as 100%−(OD560 nm experimental-blank)×100%/OD560 nm control-blank. Blank=wells+serum free media+0.5% DMSO. Experimental=wells+cells+treatment+0.5% DMSO. Control=wells+cells+0.5% DMSO. IC50 values were calculated in GraphPad Prism using non-linear regression curve fitting. All statistical analyses was done either in GraphPad Prism or Microsoft Excel.
Briefly, compounds are added to cells plated in 96-well plates. The cells are allowed to grow for 72 hours before MTT treatment. The effect of the compounds on cell proliferation is analyzed using GraphPad Prism.

A549 cells = assay: A549 Cell Proliferation Assay (MTT); type: cell-based; conditions: Homo sapiens
Experimental: Cell proliferation is determined using the MTT assay. The MTT cell proliferation assay is a colorimetric assay system which measures the reduction of a tetrazolium component (MTT) into an insoluble formazan product by the mitochondria of viable cells. After incubation of the cells with the MTT reagent, DMSO is added to solubilize the colored crystals and the samples read at a wavelength of 560 nm. The amount of color produced is directly proportional to the number of viable cells. […] L11939) was prepared at 5 mg/ml in PBS. […] Plates were read on the PolarStar plate reader at 560 nm. […] IC50 values were calculated in GraphPad Prism using non-linear regression curve fitting. All statistical analyses was done either in GraphPad Prism or Microsoft Excel. […] Briefly, compounds are added to cells plated in 96-well plates. The cells are allowed to grow for 72 hours before MTT treatment. The effect of the compounds on cell proliferation is analyzed using GraphPad Prism. A549 cells are a non-small cell lung cancer cell line that have wild type EGFR and p53 but have point mutations in KRAS gene which transform it into an oncogene. […] SH30071.03, lot no. ATB31500), 1% Pen Strep (Gibco, cat no. […] On day 2, working solutions of compounds at 200× were prepared. […] Plates were incubated for 72 hours before analyzing them with MTT (as described above).

[1] = Stability on incubation with mouse liver microsomes (MLM); type: in vitro ADME; conditions: percentage left after incubation with mouse liver microsomes for 30 minutes
Experimental: (§3) Stability of hydroxyquinoline analogs were determined (see e.g., TABLE 18). MLM represents the percentage left after incubation with mouse liver microsomes for 30 minutes. HLM represents the percentage left after incubation with human liver microsomes for 30 minutes.
(§4) Stability of analogs having a benzaldehyde derived ring were determined (see e.g., TABLE 18). MLM represents the percentage left after incubation with mouse liver microsomes for 30 minutes. HLM represents the percentage left after incubation with human liver microsomes for 30 minutes.

[2] = Stability on incubation with human liver microsomes (HLM); type: in vitro ADME; conditions: percentage left after incubation with human liver microsomes for 30 minutes
Experimental: as §3, §4

HT-29 cells = assay: HT-29 Cell Proliferation Assay (MTT); type: cell-based
Experimental: as §1, §2
Briefly, compounds are added to cells plated in 96-well plates. […] The effect of the compounds on cell proliferation is analyzed using GraphPad Prism.
HT-29 cells are a colon cancer cell line that is utilized to assess the ability of compounds to inhibit the proliferation of cells in tumors of the colon.
For the HT-29 cell proliferation assay, on day 1, HT-29 cells are seeded at 3,000 cells/well in 100 μl media containing 10% FBS, 1× Pen-Strep, and 1× L-Glutamine in 96 well, tissue culture-treated plates. […] Working solutions of compounds were prepared (at […] in 100% DMSO). To 200 μl media, 20 μl of a 5× compound (diluted in plain media) was added for a final DMSO concentration of 0.5%. […] On day 5, plates were analyzed for cell growth using the MTT assay.

[3] = A549, 72 h, read-out: IC50 Value (μM) A549 Cells
[4] = Homo sapiens, HT-29, MTT, 72 hrs, read-out: IC50 Value (μM) HT-29 Cells
[5] = A549, MTT, 72 hours, read-out: IC50 Value (μM) A549 Cells
[6] = Homo sapiens, HT-29, 72 h, read-out: IC50 Value (μM) HT-29 Cells
[7] = A549, read-out: IC50, cell proliferation in A549 or H1975 cells

Row | SMILES | IC50 (H1975 cells; NCI-H1975, 72 h) | IC50 (A549 cells; [3]) | IC50 (HT-29 cells; [6]) | other results
1 | Oc1c(C(Nc2ccc(C(F)(F)F)cn2)c2ccc(C(F)(F)F)cc2)ccc2cccnc12 (centres unmarked) [AD4-13028] | 0.26 µM | 0.14 µM |  | 
2 | Oc1c(C(Nc2ccc(C(F)(F)F)cn2)c2ccc(Cl)c(Cl)c2)ccc2cccnc12 (centres unmarked) [AD4-13030] | 0.22 µM | 0.17 µM |  | 
3 | Oc1c(C(Nc2ccc(C(F)(F)F)cn2)c2ccc(C(F)(F)F)cc2F)ccc2cccnc12 (centres unmarked) [AD4-13031] | 0.24 µM | 0.12 µM |  | MLM % Remaining@ 30 Min [1]: 87%; HLM % Remaining@ 30 Min [2]: 93%
4 | Oc1c(C(Nc2ccc(C(F)(F)F)cn2)c2ccc(Cl)c(C(F)(F)F)c2)ccc2cccnc12 (centres unmarked) [AD4-13032] | 0.21 µM | 0.17 µM |  | 
5 | Oc1c(C(Nc2ccc(C(F)(F)F)cn2)c2ccc(Cl)cc2Cl)ccc2cccnc12 (centres unmarked) [AD4-13033] | 0.23 µM | 0.13 µM |  | MLM % Remaining@ 30 Min [1]: 84%; HLM % Remaining@ 30 Min [2]: 100%
6 | Oc1c(C(Nc2cc(Cl)ccn2)c2ccc(C(F)(F)F)cc2F)ccc2cccnc12 (centres unmarked) [AD4-13046] | 0.12 µM | 0.16 µM |  | 
7 | Oc1c(C(Nc2cc(Cl)ccn2)c2ccc(C(F)(F)F)c(F)c2)ccc2cccnc12 (centres unmarked) [AD4-13048] | 0.17 µM | 0.18 µM |  | 
8 | Oc1c(C(Nc2ccc(Cl)cn2)c2cc(C(F)(F)F)ccc2Cl)ccc2cccnc12 (centres unmarked) [AD4-13052] | 0.24 µM | 0.13 µM |  | 
9 | Oc1c(C(Nc2cc(Cl)ccn2)c2cc(C(F)(F)F)ccc2Cl)ccc2cccnc12 (centres unmarked) [AD4-13060] | 0.58 µM | 0.19 µM |  | 
10 | Cc1cccc(NC(c2ccc(Cl)c(Cl)c2)c2cc(Cl)c3cccnc3c2O)n1 (centres unmarked) [AD4-13081] |  |  |  | IC50 (H1975 cells; NCI-H1975, MTT, 72 hours): 0.33 µM; IC50 (HT-29 cells; [4]): 6.2 µM; IC50 (A549 cells; [5]): 0.17 µM
11 | Cc1cccc(NC(c2cc(Cl)ccc2Cl)c2ccc3ccc(C)nc3c2O)n1 (centres unmarked) [AD4-13090] |  |  |  | IC50 (H1975 cells; NCI-H1975, MTT, 72 hours): 1.3 µM; IC50 (HT-29 cells; [4]): 3.7 µM; IC50 (A549 cells; [5]): 0.16 µM
12 | Cc1ccnc(NC(c2ccc3cccnc3c2O)c2c(F)c(F)c(OCC(F)(F)F)c(F)c2F)c1 (centres unmarked) [AD4-13092] | 0.21 µM | 0.16 µM | 3.9 µM | 
13 | Cc1cc(Cl)cnc1NC(c1ccc(Cl)c(Cl)c1)c1ccc2cccnc2c1O (centres unmarked) [AD4-13119] | 0.12 µM | 0.18 µM | 1.5 µM | 
14 | Cc1cc(NC(c2ccc(C(F)(F)F)cc2)c2ccc3cccnc3c2O)ncc1Cl (centres unmarked) [AD4-13121] | 0.33 µM | 0.18 µM | 1.8 µM | 
15 | Cc1cc(NC(c2ccc(Cl)cc2Cl)c2ccc3cccnc3c2O)ncc1Cl (centres unmarked) [AD4-13123] | 0.36 µM | 0.12 µM |  | MLM % Remaining@ 30 Min [1]: 30%; HLM % Remaining@ 30 Min [2]: 84%
16 | Cc1cc(NC(c2ccc(C(F)(F)F)cc2C(F)(F)F)c2ccc3cccnc3c2O)ncc1Cl (centres unmarked) [AD4-13124] | 0.97 µM | 0.1 µM | 1.5 µM | IC50 (A549 cells; [7]): ≤ 0.1 µM
17 | Cc1cc(Cl)cnc1NC(c1ccc2cccnc2c1O)c1c(F)cccc1Cl (centres unmarked) [AD4-13135] | 0.21 µM | 0.18 µM | 0.79 µM | 
18 | Oc1c(C(Nc2ncc(F)cc2F)c2c(Cl)cccc2Cl)ccc2cccnc12 (centres unmarked) [AD4-13138] | 0.3 µM | 0.17 µM | 1.1 µM | 
19 | Cc1cc(Cl)cnc1NC(c1ccc2cccnc2c1O)c1c(Cl)cccc1Cl (centres unmarked) [AD4-13142] | 0.95 µM | 0.14 µM | 3.1 µM | 

Row | SMILES | IC50 (H1975 cells; NCI-H1975, 72 h) | IC50 (A549 cells; [3]) | IC50 (HT-29 cells; [6]) | other results
20 | Oc1c(C(Nc2ncc(Cl)cc2F)c2cccc(C(F)(F)F)c2)ccc2cccnc12 (centres unmarked) [AD4-13145] | 1.7 µM | 0.16 µM | 2.1 µM | 
21 | Oc1c(C(Nc2ncc(F)cc2F)c2ccc(F)cc2Cl)ccc2cccnc12 (centres unmarked) [AD4-13146] | 0.24 µM | 0.14 µM | 2 µM | 
22 | Cc1cc(NC(c2ccc3cccnc3c2O)c2c(Cl)cccc2Cl)ncc1Cl (centres unmarked) [AD4-13148] | 0.31 µM | 0.13 µM | 1.1 µM | 
23 | Cc1cc(Cl)cnc1NC(c1ccc(Cl)cc1)c1ccc2cccnc2c1O (centres unmarked) [AD4-13154] | 0.15 µM | 0.17 µM | 0.76 µM | 
24 | Cc1cc(Cl)cnc1NC(c1cccc(Cl)c1)c1ccc2cccnc2c1O (centres unmarked) [AD4-13159] | 0.13 µM | 0.11 µM | 1.2 µM | 
25 | Cc1cc(Cl)cnc1NC(c1cc(Cl)cc(Cl)c1Cl)c1ccc2cccnc2c1O (centres unmarked) [AD4-13167] | 0.31 µM | 0.1 µM | 1.5 µM | 
26 | Oc1c(C(Nc2ncc(F)cc2F)c2ccc(Cl)cc2Cl)ccc2cccnc12 (centres unmarked) [AD4-13175] | 3.8 µM | 0.17 µM | 2 µM | 
27 | Oc1c(C(Nc2cc(Cl)c(Cl)cn2)c2cc(Cl)cc(Cl)c2Cl)ccc2cccnc12 (centres unmarked) [AD4-13180] | 0.86 µM | 0.1 µM | 1.7 µM | 
28 | Oc1c(C(Nc2ncc(F)cc2F)c2ccc(Cl)c(Cl)c2)ccc2cccnc12 (centres unmarked) [AD4-13182] | 1.8 µM | 0.19 µM | 8.3 µM | 
29 | Oc1c(C(Nc2cc(Cl)c(Cl)cn2)c2ccc(Cl)c(C(F)(F)F)c2)ccc2cccnc12 (centres unmarked) [AD4-13184] | 0.24 µM | 0.11 µM | 2.2 µM | 
30 | Oc1c(C(Nc2cc(Cl)c(Cl)cn2)c2ccc(Cl)cc2)ccc2cccnc12 (centres unmarked) [AD4-13187] | 0.26 µM | 0.15 µM | 1.3 µM | 
31 | Oc1c(C(Nc2cc(Cl)c(Cl)cn2)c2cccc(Cl)c2)ccc2cccnc12 (centres unmarked) [AD4-13188] | 0.28 µM | 0.14 µM | 0.86 µM | 
32 | Cc1nc(NC(c2cc(Cl)cc(Cl)c2Cl)c2ccc3cccnc3c2O)c(Cl)cc1Cl (centres unmarked) [AD4-13213] |  | 0.16 µM | 5.4 µM | 
33 | COc1cc(Cl)cnc1NC(c1cc(Cl)cc(Cl)c1)c1ccc2cccnc2c1O (centres unmarked) [AD4-13216] |  | 0.12 µM | 1.6 µM | 
34 | CCc1cc(Cl)cnc1NC(c1ccc(Cl)cc1Cl)c1ccc2cccnc2c1O (centres unmarked) [AD4-13217] |  | 0.12 µM | 0.96 µM | 
35 | CCc1c(Cl)cnc(NC(c2ccc(Cl)cc2Cl)c2ccc3cccnc3c2O)c1F (centres unmarked) [AD4-13218] |  | 0.086 µM | 0.92 µM | IC50 (A549 cells; [7]): ≤ 0.1 µM
36 | Cc1nc(NC(c2cc(Cl)cc(Cl)c2)c2ccc3cccnc3c2O)c(Cl)cc1Cl (centres unmarked) [AD4-13223] |  | 0.11 µM | 2.5 µM | 
37 | CS(=O)(=O)CCNCc1ccc(-c2ccc3ncnc(Nc4ccc(OCc5cccc(F)c5)c(Cl)c4)c3c2)o1 [Tykerb, reference compound] |  |  |  | IC50 (HT-29 cells; Homo sapiens, HT-29, 48 h, read-out: IC50, Comparison of Incubation Times in HT-29 Cell Proliferation Assay): 2.7 µM; IC50 (HT-29 cells; Homo sapiens, HT-29, 72 h, read-out: IC50, Comparison of Incubation Times in HT-29 Cell Proliferation Assay): 2.3 µM; IC50 (HT-29 cells; Homo sapiens, HT-29, read-out: HT-29 Cell Proliferation Assay Results (IC50)): 5 µM; IC50 (HT-29 cells; Homo sapiens, HT-29, read-out: IC50 from dose-response curves of FIG. 11, HT-29 cells): 2.7 µM; IC50 (HT-29 cells; read-out: HT-29 Cell Proliferation Assay Results (IC50)): 5.1 µM and 8.5 µM and 9.2 µM; IC50 (HT-29 cells; read-out: IC50, Comparison of Incubation Times in HT-29 Cell Proliferation Assay): 4.4 µM and 4.2 µM
